One test addresses JAK2 kinase domain (JH1) (Homo sapiens (Human), UniProt O60674). Briefly: JAK2 Radioactive Kinase Assay. Particulars: read-out: JAK2 JH1% Inhibition @ 10 μM. The class given is biochemical. The gist of the method:
(§1)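 Compounds were tested at a single concentration of 10 μM in a radiometric kinase format against each isolated kinase domain. Activity is reported as percent inhibition at that concentration.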

For test [1], the target named is human TYK2 (JH2domain-pseudokinase) (Homo sapiens (Human), UniProt P29597). Briefly: TYK2 JH2 Domain Binding Assay (KINOMEscan). Summed up:
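The construct was human TYK2 G556–D888 fused to the NFkB DNA-binding domain and expressed in HEK293 cells; unpurified extract was incubated with compound and liganded beads for 1 hour at room temperature.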

The target in the next test is Tyk2 kinase domain (DH1) (Homo sapiens (Human), UniProt P29597). Put plainly: Tyk2 Radioactive Kinase Assay. In kind it is biochemical. Particulars: read-out: Tyk2 JH1% Inhibition @ 10 μM. Summed up: as §1
Sequence of Tyk2 kinase domain (DH1) (P29597 897-1176): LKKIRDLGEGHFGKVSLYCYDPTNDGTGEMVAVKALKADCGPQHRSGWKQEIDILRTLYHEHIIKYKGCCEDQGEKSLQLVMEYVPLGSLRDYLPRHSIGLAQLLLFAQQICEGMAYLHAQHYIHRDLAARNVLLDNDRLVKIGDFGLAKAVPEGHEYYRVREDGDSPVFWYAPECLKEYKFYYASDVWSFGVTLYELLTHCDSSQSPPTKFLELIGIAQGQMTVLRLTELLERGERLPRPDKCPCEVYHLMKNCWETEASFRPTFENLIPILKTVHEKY

Like-named read-outs stand apart in the source and are kept apart here.

Sequence of human TYK2 (JH2domain-pseudokinase) (P29597 556-888): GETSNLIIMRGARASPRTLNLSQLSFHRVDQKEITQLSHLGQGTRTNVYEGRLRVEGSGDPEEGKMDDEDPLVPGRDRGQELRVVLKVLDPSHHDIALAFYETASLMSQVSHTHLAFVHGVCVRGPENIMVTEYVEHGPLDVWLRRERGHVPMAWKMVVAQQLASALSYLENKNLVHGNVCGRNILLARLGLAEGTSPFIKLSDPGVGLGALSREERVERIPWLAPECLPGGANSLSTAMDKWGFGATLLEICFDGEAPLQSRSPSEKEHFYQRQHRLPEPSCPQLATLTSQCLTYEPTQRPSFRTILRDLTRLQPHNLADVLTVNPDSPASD
Sequence of JAK2 kinase domain (JH1) (O60674 849-1124): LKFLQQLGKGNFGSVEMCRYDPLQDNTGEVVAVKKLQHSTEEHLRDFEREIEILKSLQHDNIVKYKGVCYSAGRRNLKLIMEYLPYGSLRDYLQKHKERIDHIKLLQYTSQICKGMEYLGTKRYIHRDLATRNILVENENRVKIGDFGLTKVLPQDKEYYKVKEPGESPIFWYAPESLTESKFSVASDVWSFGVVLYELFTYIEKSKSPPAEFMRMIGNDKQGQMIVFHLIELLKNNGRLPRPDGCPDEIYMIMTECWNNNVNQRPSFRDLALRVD

As for `NC(=O)c1cnn2c(N)cc(Nc3cc(Cl)cnc3OC3CCOC3)nc12` (stereo not drawn) [I-82, 7-amino-5-((5-chloro-2-((tetrahydrofuran-3-yl)oxy)pyridin-3-yl)amino) pyrazolo[1,5-a]pyrimidine-3-carboxamide], the inhibition – broadly, the percentage by which the read-out fell short of the control – at 10 µM at JAK2 kinase domain (JH1) (compound at 10 μM, ATP 10 μM) was under 50%; on Tyk2 kinase domain (DH1) (compound at 10 μM, ATP 10 μM) it was under 50%. Further, the Kd – broadly, a measure of binding affinity in units of concentration – in test [1] is 1 to 10 nM.

As for `CNc1cc(Nc2cccn(C3CCOCC3)c2=O)nc2c(C(=O)NC[C@H](C)CO)cnn12` [I-1031], the inhibition at 10 µM on JAK2 kinase domain (JH1) (10 μM compound, 10 μM ATP) was under 50%; on Tyk2 kinase domain (DH1) (10 μM compound, 10 μM ATP), under 50%. In test [1], this molecule registered a Kd of under 0.2 nM.

Consider `CNc1cc(Nc2cccn([C@@H]3CCC[C@@H](OC)C3)c2=O)nc2c(C(=O)NCC(C)(C)CO)cnn12` [I-1028], for which the inhibition at 10 µM on JAK2 kinase domain (JH1) (10 μM compound, 10 μM ATP) was under 50%; at Tyk2 kinase domain (DH1) (10 μM compound, 10 μM ATP) it was under 50%. For the same molecule, in test [1], the Kd was in the range of 0.2 to 1 nM.

For `CNc1cc(Nc2cccn(C3CCOCC3)c2=O)nc2c(C(=O)NC[C@@H](C)CO)cnn12` [I-1032], the inhibition at 10 µM at JAK2 kinase domain (JH1) (10 μM compound, 10 μM ATP) is under 50%; at Tyk2 kinase domain (DH1) (10 μM compound, 10 μM ATP), under 50%. In test [1], the Kd lay in the range of 0.2 to 1 nM.

In the case of `CNc1cc(Nc2cc(Cl)cn(C3CCN(C)CC3)c2=O)nc2c(C(=O)N[C@@H]3CC[C@@H]3O)cnn12` [I-1007], the inhibition at 10 µM was under 50% at JAK2 kinase domain (JH1) (10 μM compound, 10 μM ATP) and under 50% on Tyk2 kinase domain (DH1) (10 μM compound, 10 μM ATP). In addition, the Kd in test [1] lay in the range of 0.2 to 1 nM.

On to `CNc1cc(Nc2cccn([C@@H]3CCCN(C)C3)c2=O)nc2c(C(=O)N[C@@H]3C[C@@H]3F)cnn12` [I-536], for which the inhibition at 10 µM is under 50% at JAK2 kinase domain (JH1) (compound at 10 μM, ATP 10 μM) and under 50% on Tyk2 kinase domain (DH1) (compound at 10 μM, ATP 10 μM). Moreover, the Kd in test [1] was in the range of 0.2 to 1 nM.

Consider `CNc1cc(Nc2cccn([C@@H]3CC[C@@H]3O)c2=O)nc2c(C(=O)NC3CC3)cnn12` [I-1104], for which the inhibition at 10 µM at JAK2 kinase domain (JH1) (10 μM compound, 10 μM ATP) is under 50%; on Tyk2 kinase domain (DH1) (10 μM compound, 10 μM ATP), under 50%. For the same molecule, the Kd in test [1] is under 0.2 nM.

As for `NC(=O)c1cnn2c(N)cc(Nc3ccnn(-c4ccc(F)cc4)c3=O)nc12` [I-70, 7-amino-5-((2-(4-fluorophenyl)-3-oxo-2,3-dihydropyridazin-4-yl)amino) pyrazolo[1,5-a]pyrimidine-3-carboxamide], the inhibition at 10 µM was under 50% at JAK2 kinase domain (JH1) (compound at 10 μM, ATP 10 μM) and under 50% at Tyk2 kinase domain (DH1) (compound at 10 μM, ATP 10 μM). Also, the Kd in test [1] is 1 to 10 nM.

As for `CNc1cc(-c2cn(C(C)C)c3ncccc23)nc2c(C(=O)NCC3(CO)CC3)cnn12` [I-587], the inhibition at 10 µM on JAK2 kinase domain (JH1) (compound at 10 μM, ATP 10 μM) was under 50%; on Tyk2 kinase domain (DH1) (compound at 10 μM, ATP 10 μM) it was under 50%. In test [1], the Kd was in the range of 0.2 to 1 nM.

For `CNc1cc(Nc2cccc3ocnc23)nc2c(C(=O)N[C@H]3CC[C@H]3O)cnn12` [I-771], the inhibition at 10 µM was under 50% on JAK2 kinase domain (JH1) (compound at 10 μM, ATP 10 μM) and under 50% at Tyk2 kinase domain (DH1) (compound at 10 μM, ATP 10 μM). The same molecule gave a Kd in test [1] of 0.2 to 1 nM.

On to `CNc1cc(Nc2cccnc2OC)nc2c(C(=O)N[C@H]3COC[C@H]3O)cnn12` [I-615], for which the inhibition at 10 µM at JAK2 kinase domain (JH1) (compound at 10 μM, ATP 10 μM) was under 50%; on Tyk2 kinase domain (DH1) (compound at 10 μM, ATP 10 μM), under 50%. Besides, in test [1], the Kd was under 0.2 nM.

For `CNc1cc(Nc2c(F)ccn(-c3nccs3)c2=O)nc2c(C(=O)N[C@H]3C[C@H]3F)cnn12` [I-624], the inhibition at 10 µM was under 50% on JAK2 kinase domain (JH1) (compound at 10 μM, ATP 10 μM) and 70 to 90% at Tyk2 kinase domain (DH1) (compound at 10 μM, ATP 10 μM). Moreover, the Kd in test [1] lay within 0.2 to 1 nM.

For `CNc1cc(Nc2cccnc2OC2CN(CC(F)(F)F)C2)nc2c(C(=O)NC3CC3)cnn12` [I-367], the inhibition at 10 µM on JAK2 kinase domain (JH1) (compound at 10 μM, ATP 10 μM) is under 50%; on Tyk2 kinase domain (DH1) (compound at 10 μM, ATP 10 μM), under 50%. Besides, in test [1], the Kd lay in the range of 0.2 to 1 nM.

Take `CNc1cc(Nc2cccn(C3CCN(CCC#N)CC3)c2=O)nc2c(C(=O)NC3CC3)cnn12` [I-652, 5-((1-(1-(2-cyanoethyl)piperidin-4-yl)-2-oo-1,2-dihydropyridin-3-yl)amino)-N-cyclopropyl-7-(methylamino)pyrazolo[1,5-a]pyrimidine-3-carboxamide]: the inhibition at 10 µM was under 50% at JAK2 kinase domain (JH1) (compound at 10 μM, ATP 10 μM) and under 50% on Tyk2 kinase domain (DH1) (compound at 10 μM, ATP 10 μM). Besides, the Kd in test [1] is under 0.2 nM.

For `CNc1cc(Nc2cc(Cl)cnc2OC(C)C)nc2c(C(=O)N[C@H]3C[C@H]3F)cnn12` [I-148], the inhibition at 10 µM is under 50% on JAK2 kinase domain (JH1) (compound at 10 μM, ATP 10 μM) and under 50% on Tyk2 kinase domain (DH1) (compound at 10 μM, ATP 10 μM). This molecule also came in with a Kd in test [1] of 0.2 to 1 nM.

In the case of `CNc1cc(Nc2cccn(-c3ccccn3)c2=O)nc2c(C(=O)NC[C@H](C)CO)cnn12` [I-730], the inhibition at 10 µM at JAK2 kinase domain (JH1) (compound at 10 μM, ATP 10 μM) was under 50%; on Tyk2 kinase domain (DH1) (compound at 10 μM, ATP 10 μM), under 50%. The molecule further showed a Kd in test [1] of under 0.2 nM.

`NC(=O)c1cnn2c(N)cc(Nc3cccn(-c4ccon4)c3=O)nc12` [I-57]: the inhibition at 10 µM at JAK2 kinase domain (JH1) (compound at 10 μM, ATP 10 μM) was under 50%; on Tyk2 kinase domain (DH1) (compound at 10 μM, ATP 10 μM) it was under 50%. Also, the Kd in test [1] fell in the range of 0.2 to 1 nM.

As for `CNc1cc(Nc2cccnc2OC2COC2)nc2c(C(=O)NC3CC3)cnn12` [I-228], the inhibition at 10 µM at JAK2 kinase domain (JH1) (compound at 10 μM, ATP 10 μM) was under 50%; at Tyk2 kinase domain (DH1) (compound at 10 μM, ATP 10 μM) it was under 50%. The same molecule displayed a dissociation constant Kd in test [1] of 1 to 10 nM.

Regarding `CNc1cc(Nc2cc(Cl)cn(-c3cnn(C4CC4)c3C)c2=O)nc2c(C(N)=O)cnn12` [I-180], the inhibition at 10 µM was under 50% on JAK2 kinase domain (JH1) (compound at 10 μM, ATP 10 μM) and under 50% on Tyk2 kinase domain (DH1) (compound at 10 μM, ATP 10 μM). Moreover, the Kd in test [1] is under 0.2 nM.

Regarding `CNc1cc(Nc2cccn([C@@H]3CCN(C)C[C@@H]3F)c2=O)nc2c(C(=O)NC3CC3)cnn12` [I-688], the inhibition at 10 µM on JAK2 kinase domain (JH1) (compound at 10 μM, ATP 10 μM) was under 50%; at Tyk2 kinase domain (DH1) (compound at 10 μM, ATP 10 μM) it was under 50%. This molecule also displayed a dissociation constant (Kd) in test [1] of under 0.2 nM.

With `CNc1cc(Nc2cccn([C@H]3CCCOC3)c2=O)nc2c(C(=O)N[C@H]3CC[C@@H]3O)cnn12` [I-697], the inhibition at 10 µM is under 50% on JAK2 kinase domain (JH1) (compound at 10 μM, ATP 10 μM) and under 50% on Tyk2 kinase domain (DH1) (compound at 10 μM, ATP 10 μM). The molecule also registered a Kd in test [1] of under 0.2 nM.

With `CNc1cc(Nc2cccn([C@H]3CCCOC3)c2=O)nc2c(C(=O)N[C@@H]3CC[C@@H]3O)cnn12` [I-696], the inhibition at 10 µM on JAK2 kinase domain (JH1) (compound at 10 μM, ATP 10 μM) was under 50%; at Tyk2 kinase domain (DH1) (compound at 10 μM, ATP 10 μM), under 50%. For the same molecule, in test [1], the Kd was under 0.2 nM.

For the molecule `CNc1cc(Nc2cccn(C3CCOCC3)c2=O)nc2c(C(=O)NCC(C)(C)CO)cnn12` [I-509], the inhibition at 10 µM is under 50% on JAK2 kinase domain (JH1) (compound at 10 μM, ATP 10 μM) and under 50% at Tyk2 kinase domain (DH1) (compound at 10 μM, ATP 10 μM). The molecule also displayed a Kd in test [1] of under 0.2 nM.

With `CNc1cc(Nc2cccn(-c3nc(C)c(C)s3)c2=O)nc2c(C(=O)NC3CC3)cnn12` [I-291], the inhibition at 10 µM at JAK2 kinase domain (JH1) (compound at 10 μM, ATP 10 μM) was under 50%; on Tyk2 kinase domain (DH1) (compound at 10 μM, ATP 10 μM), under 50%. The same molecule showed a Kd in test [1] of 0.2 to 1 nM.

Turning to `CNc1cc(Nc2cccn(-c3ccccn3)c2=O)nc2c(C(=O)N[C@@H]3CC[C@H]3O)cnn12` [I-972], the inhibition at 10 µM on JAK2 kinase domain (JH1) (10 μM compound, 10 μM ATP) was under 50%; at Tyk2 kinase domain (DH1) (10 μM compound, 10 μM ATP), under 50%. In addition, the Kd in test [1] fell in the range of 0.2 to 1 nM.

For `CNc1cc(Nc2cccc(N3CCC4(CCCO4)CC3)n2)nc2c(C(=O)NC3CC3)cnn12` [I-655], the inhibition at 10 µM was under 50% at JAK2 kinase domain (JH1) (compound at 10 μM, ATP 10 μM) and under 50% at Tyk2 kinase domain (DH1) (compound at 10 μM, ATP 10 μM). The Kd in test [1] lay within 0.2 to 1 nM.

As for `CNc1cc(Nc2cccnc2OC2CCOCC2)nc2c(C(=O)NC3CC3)cnn12` [I-173], the inhibition at 10 µM was under 50% on JAK2 kinase domain (JH1) (compound at 10 μM, ATP 10 μM) and under 50% on Tyk2 kinase domain (DH1) (compound at 10 μM, ATP 10 μM). Further, the Kd in test [1] is 0.2 to 1 nM.

On to `CNc1cc(Nc2cccn(-c3ccc(C(=O)N4CCCC4)cn3)c2=O)nc2c(C(N)=O)cnn12` [I-45], for which the inhibition at 10 µM on JAK2 kinase domain (JH1) (compound at 10 μM, ATP 10 μM) was under 50%; on Tyk2 kinase domain (DH1) (compound at 10 μM, ATP 10 μM) it was under 50%. Besides, the Kd in test [1] was under 0.2 nM.

Consider `CNc1cc(Nc2cccn([C@@H]3CCCC[C@@H]3O)c2=O)nc2c(C(=O)NC3CC3)cnn12` [I-879], for which the inhibition at 10 µM is under 50% on JAK2 kinase domain (JH1) (10 μM compound, 10 μM ATP) and under 50% at Tyk2 kinase domain (DH1) (10 μM compound, 10 μM ATP). Further, the Kd in test [1] was 1 to 10 nM.

Turning to `CNc1cc(Nc2cccn([C@@H]3CCC[C@H](OC)C3)c2=O)nc2c(C(=O)N[C@H]3CC[C@@H]3OC)cnn12` [I-1083], the inhibition at 10 µM was under 50% on JAK2 kinase domain (JH1) (10 μM compound, 10 μM ATP) and under 50% at Tyk2 kinase domain (DH1) (10 μM compound, 10 μM ATP). Moreover, in test [1], the Kd is 1 to 10 nM.

The record behind these values is patent US10508120B2, “TYK2 inhibitors and uses thereof” (Nimbus Lakshmi, Inc., priority 2017, dated 2019).
